According to ChEMBL document CHEMBL4680299 (Bioorg Med Chem Lett, 2021):

How the values were obtained:
[1] = target: Metabotropic glutamate receptor 5 (Homo sapiens, UniProt P41594); assay: Positive allosteric modulation of mGluR5 (unknown origin) by calcium mobilization assay; type: functional
[2] = target: Metabotropic glutamate receptor 1 (Homo sapiens, UniProt Q13255); assay: Positive allosteric modulation of human mGluR1 in presence of EC20 concentration of glutamate by calcium mobilization assay; type: functional
Metabotropic glutamate receptor 1, sequence (Q13255 whole entry): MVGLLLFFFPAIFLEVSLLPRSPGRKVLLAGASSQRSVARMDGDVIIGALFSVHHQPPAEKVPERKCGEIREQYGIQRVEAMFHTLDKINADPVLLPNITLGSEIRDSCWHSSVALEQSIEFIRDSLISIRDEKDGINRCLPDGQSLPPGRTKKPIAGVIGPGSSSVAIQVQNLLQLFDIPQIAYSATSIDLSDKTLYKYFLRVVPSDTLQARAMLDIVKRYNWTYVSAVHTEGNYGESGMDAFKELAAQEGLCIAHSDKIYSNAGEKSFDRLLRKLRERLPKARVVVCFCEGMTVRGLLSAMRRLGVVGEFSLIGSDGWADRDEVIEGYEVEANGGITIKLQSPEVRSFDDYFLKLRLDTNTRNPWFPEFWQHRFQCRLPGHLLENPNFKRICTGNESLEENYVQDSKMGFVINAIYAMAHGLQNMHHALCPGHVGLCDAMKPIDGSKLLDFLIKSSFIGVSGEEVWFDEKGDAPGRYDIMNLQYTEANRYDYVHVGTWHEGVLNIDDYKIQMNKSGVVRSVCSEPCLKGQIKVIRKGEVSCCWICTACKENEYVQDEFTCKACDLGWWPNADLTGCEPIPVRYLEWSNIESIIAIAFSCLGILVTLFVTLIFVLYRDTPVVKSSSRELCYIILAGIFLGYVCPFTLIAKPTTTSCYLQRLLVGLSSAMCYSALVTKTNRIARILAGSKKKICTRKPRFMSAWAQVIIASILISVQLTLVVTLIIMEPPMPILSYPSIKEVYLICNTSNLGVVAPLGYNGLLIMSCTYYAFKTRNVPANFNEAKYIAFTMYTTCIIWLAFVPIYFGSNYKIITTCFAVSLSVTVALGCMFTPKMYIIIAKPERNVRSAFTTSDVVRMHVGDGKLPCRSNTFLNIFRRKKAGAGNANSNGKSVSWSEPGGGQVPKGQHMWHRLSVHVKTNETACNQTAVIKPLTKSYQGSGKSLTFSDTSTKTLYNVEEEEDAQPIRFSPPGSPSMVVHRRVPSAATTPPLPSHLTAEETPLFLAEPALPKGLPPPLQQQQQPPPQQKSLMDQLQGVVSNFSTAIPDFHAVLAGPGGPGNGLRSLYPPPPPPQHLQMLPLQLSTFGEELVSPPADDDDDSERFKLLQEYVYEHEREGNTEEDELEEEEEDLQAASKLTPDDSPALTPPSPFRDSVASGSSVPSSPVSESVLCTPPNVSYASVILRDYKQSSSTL

[3] = target: Metabotropic glutamate receptor 4 (Homo sapiens, UniProt Q14833); assay: Positive allosteric modulation of human mGluR4 by calcium mobilization assay; type: functional
Metabotropic glutamate receptor 4, sequence (Q14833 whole entry): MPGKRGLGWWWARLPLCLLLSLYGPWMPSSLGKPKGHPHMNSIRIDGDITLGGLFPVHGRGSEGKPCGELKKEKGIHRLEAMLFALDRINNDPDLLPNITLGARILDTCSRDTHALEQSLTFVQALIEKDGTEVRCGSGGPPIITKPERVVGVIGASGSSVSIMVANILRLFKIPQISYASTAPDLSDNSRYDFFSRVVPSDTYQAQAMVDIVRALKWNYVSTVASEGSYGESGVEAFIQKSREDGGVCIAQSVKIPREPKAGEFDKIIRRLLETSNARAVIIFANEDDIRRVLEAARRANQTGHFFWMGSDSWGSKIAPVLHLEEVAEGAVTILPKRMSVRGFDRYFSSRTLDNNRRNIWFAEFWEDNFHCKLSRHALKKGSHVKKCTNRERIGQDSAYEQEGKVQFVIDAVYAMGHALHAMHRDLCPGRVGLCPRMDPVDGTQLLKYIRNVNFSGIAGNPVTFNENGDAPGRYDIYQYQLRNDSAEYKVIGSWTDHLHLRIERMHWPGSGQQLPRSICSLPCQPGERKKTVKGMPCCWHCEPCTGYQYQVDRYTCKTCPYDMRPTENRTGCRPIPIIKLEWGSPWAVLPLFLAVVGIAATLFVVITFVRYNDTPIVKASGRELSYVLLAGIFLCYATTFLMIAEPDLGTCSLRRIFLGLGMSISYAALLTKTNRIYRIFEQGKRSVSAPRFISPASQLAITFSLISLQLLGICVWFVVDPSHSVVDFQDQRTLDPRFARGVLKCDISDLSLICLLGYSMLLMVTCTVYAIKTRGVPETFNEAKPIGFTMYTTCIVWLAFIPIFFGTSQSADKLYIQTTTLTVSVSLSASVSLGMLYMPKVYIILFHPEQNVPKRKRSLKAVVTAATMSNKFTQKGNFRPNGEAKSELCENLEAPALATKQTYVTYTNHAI

[4] = target: Metabotropic glutamate receptor 7 (Homo sapiens, UniProt Q14831); assay: Positive allosteric modulation of human mGluR7 in presence of EC20 concentration of L-AP4 by calcium mobilization assay; type: functional
Metabotropic glutamate receptor 7, sequence (Q14831 whole entry): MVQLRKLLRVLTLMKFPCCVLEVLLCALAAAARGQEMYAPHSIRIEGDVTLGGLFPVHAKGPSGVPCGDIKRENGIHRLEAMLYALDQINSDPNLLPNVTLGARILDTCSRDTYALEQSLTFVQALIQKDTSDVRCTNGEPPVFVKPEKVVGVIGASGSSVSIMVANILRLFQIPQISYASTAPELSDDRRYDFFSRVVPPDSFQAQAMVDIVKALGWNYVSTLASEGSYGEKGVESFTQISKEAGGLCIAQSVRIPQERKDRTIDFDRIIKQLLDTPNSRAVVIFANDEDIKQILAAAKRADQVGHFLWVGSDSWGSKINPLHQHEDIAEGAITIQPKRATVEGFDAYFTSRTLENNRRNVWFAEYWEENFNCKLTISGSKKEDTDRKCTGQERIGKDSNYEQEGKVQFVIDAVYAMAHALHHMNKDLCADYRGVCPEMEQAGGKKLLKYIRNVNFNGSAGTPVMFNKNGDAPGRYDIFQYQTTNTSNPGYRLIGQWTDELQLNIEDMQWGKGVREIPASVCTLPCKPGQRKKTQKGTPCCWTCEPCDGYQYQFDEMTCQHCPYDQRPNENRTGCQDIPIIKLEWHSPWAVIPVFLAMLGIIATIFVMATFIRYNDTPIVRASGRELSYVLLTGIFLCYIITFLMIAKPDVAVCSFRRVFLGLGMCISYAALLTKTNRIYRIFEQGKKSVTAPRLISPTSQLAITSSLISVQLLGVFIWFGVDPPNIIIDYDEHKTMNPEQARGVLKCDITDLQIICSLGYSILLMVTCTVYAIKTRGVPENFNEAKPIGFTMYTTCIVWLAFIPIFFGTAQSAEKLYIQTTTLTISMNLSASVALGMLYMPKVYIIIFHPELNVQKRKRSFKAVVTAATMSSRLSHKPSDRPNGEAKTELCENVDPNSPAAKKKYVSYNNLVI

[5] = target: Metabotropic glutamate receptor 8 (Homo sapiens, UniProt O00222); assay: Positive allosteric modulation of mGluR8 (unknown origin) by calcium mobilization assay; type: functional
[6] = target: Metabotropic glutamate receptor 2 (Homo sapiens, UniProt Q14416); assay: Positive allosteric modulation of mGluR2 (unknown origin) by calcium mobilization assay; type: functional
Metabotropic glutamate receptor 2, sequence (Q14416 whole entry): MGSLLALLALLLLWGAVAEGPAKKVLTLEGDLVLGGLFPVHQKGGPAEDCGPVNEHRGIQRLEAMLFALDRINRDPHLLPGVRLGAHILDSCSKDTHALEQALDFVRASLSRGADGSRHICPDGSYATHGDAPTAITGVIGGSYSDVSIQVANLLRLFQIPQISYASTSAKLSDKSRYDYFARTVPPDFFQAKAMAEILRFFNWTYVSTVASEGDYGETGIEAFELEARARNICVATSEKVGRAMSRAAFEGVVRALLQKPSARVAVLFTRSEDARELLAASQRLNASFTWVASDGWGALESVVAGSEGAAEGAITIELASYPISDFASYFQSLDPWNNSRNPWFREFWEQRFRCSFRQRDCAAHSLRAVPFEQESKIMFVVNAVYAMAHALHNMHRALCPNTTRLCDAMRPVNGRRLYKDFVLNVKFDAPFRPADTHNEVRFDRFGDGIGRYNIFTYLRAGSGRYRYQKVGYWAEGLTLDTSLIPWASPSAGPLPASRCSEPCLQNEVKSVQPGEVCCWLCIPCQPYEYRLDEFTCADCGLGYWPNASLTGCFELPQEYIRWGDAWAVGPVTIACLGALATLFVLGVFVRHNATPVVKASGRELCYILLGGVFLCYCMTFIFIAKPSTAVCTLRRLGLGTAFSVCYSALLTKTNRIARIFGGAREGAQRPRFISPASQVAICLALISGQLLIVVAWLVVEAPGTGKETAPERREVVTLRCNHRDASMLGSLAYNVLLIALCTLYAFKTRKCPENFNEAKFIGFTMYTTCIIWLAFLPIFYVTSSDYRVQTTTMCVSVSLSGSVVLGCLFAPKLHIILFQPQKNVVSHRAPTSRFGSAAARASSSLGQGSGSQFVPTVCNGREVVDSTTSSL

[7] = target: Metabotropic glutamate receptor 3 (Homo sapiens, UniProt Q14832); assay: Positive allosteric modulation of mGluR3 (unknown origin) by calcium mobilization assay; type: functional
Metabotropic glutamate receptor 3, sequence (Q14832 whole entry): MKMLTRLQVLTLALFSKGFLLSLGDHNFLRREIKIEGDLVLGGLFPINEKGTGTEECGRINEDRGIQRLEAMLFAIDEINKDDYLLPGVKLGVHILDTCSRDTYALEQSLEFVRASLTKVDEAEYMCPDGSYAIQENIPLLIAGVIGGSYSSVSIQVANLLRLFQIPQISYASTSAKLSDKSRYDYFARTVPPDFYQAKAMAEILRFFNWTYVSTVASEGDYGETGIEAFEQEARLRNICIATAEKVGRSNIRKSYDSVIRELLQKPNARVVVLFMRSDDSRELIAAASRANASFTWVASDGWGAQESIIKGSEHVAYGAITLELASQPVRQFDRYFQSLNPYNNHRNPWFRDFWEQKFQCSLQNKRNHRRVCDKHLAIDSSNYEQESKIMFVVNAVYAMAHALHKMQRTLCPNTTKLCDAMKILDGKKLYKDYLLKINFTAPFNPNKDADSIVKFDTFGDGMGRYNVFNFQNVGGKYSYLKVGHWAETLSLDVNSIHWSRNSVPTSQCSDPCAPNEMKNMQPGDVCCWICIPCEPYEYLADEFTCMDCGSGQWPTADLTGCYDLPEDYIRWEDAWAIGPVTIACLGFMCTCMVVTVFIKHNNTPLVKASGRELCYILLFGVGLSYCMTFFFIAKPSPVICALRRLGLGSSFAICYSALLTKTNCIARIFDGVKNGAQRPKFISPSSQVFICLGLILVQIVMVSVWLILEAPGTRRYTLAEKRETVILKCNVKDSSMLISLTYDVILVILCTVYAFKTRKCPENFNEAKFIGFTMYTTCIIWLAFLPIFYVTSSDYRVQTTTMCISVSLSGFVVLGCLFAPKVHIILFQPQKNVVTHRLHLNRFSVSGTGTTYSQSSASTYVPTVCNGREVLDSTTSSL

[8] = target: Metabotropic glutamate receptor 6 (Homo sapiens, UniProt O15303); assay: Positive allosteric modulation of mGluR6 (unknown origin) by calcium mobilization assay; type: functional
[9] = Protein binding in rat plasma assessed as fraction unbound; type: ADME, cell-free

Row | EC50 [2] [nM] | EC50 [3] [nM] | EC50 [4] [nM] | SMILES | further results
1 | 22 | > 30000 | > 30000 | Cc1ccc2c(c1)C(=O)N(c1ccc(NC(=O)c3occc3C)c(F)c1)C2=O | EC50 [1]: > 30000 nM; EC50 [5]: > 30000 nM; EC50 [6]: > 30000 nM; EC50 [7]: > 30000 nM; EC50 [8]: > 30000 nM
2 | > 10000 |  |  | Cc1ccoc1C(=O)Nc1c(F)cc(N2C(=O)[C@H]3CC=CC[C@H]3C2=O)c(F)c1F | 
3 | > 10000 |  |  | Cc1ccoc1C(=O)Nc1c(F)cc(N2C(=O)c3cccc(F)c3C2=O)c(F)c1F | 
4 |  |  |  | Cc1cc(NC(=O)c2occc2C)c(F)cc1N1C(=O)c2ccccc2C1=O | fraction unbound [9]: 0.012
5 | > 10000 |  |  | Cc1ccoc1C(=O)Nc1ccc(N2C(=O)c3ccccc3C2=O)c(C#N)c1 | 
6 | > 10000 |  |  | Cc1ccoc1C(=O)Nc1cc(F)c(N2C(=O)c3ccccc3C2=O)c(F)c1 | 
7 | > 30000 |  |  | O=C(Nc1ccc(N2C(=O)C3C(C2=O)[C@H]2C=C[C@@H]3C2)cc1)c1ccccn1 (some centres not stated) | 
8 | > 10000 | 89 | 377 | Cc1cc(N2C(=O)C3=C(CCCC3)C2=O)c(F)cc1NC(=O)c1ccco1 | 
9 | > 10000 |  |  | Cc1ccoc1C(=O)Nc1c(F)cc(N2C(=O)C3=C(CCCC3)C2=O)c(F)c1F | 
10 | > 10000 |  |  | Cc1ccoc1C(=O)Nc1c(F)cc(N2C(=O)c3ccccc3C2=O)cc1F | 
11 |  |  |  | Cc1ccoc1C(=O)Nc1cc(F)c(N2C(=O)c3cccc(Cl)c3C2=O)c(F)c1F | fraction unbound [9]: 0.012
12 | > 10000 |  |  | Cc1ccoc1C(=O)Nc1c(F)cc(N2C(=O)c3ccc(F)cc3C2=O)c(F)c1F | 
13 | 58 | 266 | 372 | Cc1cc(N2C(=O)C3=C(CCCC3)C2=O)c(F)cc1NC(=O)c1occc1C | fraction unbound [9]: 0.012
14 | > 10000 | 175 | 1340 | Cc1nc(C(=O)Nc2cc(F)c(N3C(=O)C4=C(CCCC4)C3=O)cc2C)cs1 | 
15 | > 10000 |  |  | Cc1ccoc1C(=O)Nc1c(F)cc(N2C(=O)c3ccc(Cl)cc3C2=O)c(F)c1F | 
16 | > 10000 | 229 | 400 | Cc1cc(N2C(=O)C3=C(CCCC3)C2=O)c(F)cc1NC(=O)c1ccc(Cl)o1 | 
